{
  "source": "paper PMC9229165",
  "about": "“In Vitro Anticancer Activity Screening of Novel Fused Thiophene Derivatives as VEGFR-2/AKT Dual Inhibitors and Apoptosis Inducers” (Pharmaceuticals, 2022)",
  "key": {"HepG2 cells [1]": {"test_system": "HepG2 cells", "assay": "Annexin V-FITC/PI apoptosis detection", "type": "cell-based", "settings": "HepG2, 48 h", "experimental": "Annexin V/PI staining with flow cytometric analysis was adapted to measure early and late apoptotic cells and necrotic cells as presented in Table 3 and Figure 6.\n(§1) Analyzing the DNA content in the cell cycle phases by flow cytometry was conducted using FACSCalibur (Becton Dickinson, Franklin Lakes, NJ, USA) following the manufacturer’s manual. The cell cycle analysis procedures were as reported by on HepG2 cells after their treatment with the most promising derivatives for 48 h. Further assessment of the proapoptotic effect was determined by the Annexin V-FITC/PI apoptosis detection kit (Catalog # K101-25, BD Biosciences, San Diego, CA, USA)."}, "AKT-1 [2]": {"biological_target": "T1, AKT-1 (Homo sapiens, UniProt P31749)", "T1 sequence (P31749 whole entry)": "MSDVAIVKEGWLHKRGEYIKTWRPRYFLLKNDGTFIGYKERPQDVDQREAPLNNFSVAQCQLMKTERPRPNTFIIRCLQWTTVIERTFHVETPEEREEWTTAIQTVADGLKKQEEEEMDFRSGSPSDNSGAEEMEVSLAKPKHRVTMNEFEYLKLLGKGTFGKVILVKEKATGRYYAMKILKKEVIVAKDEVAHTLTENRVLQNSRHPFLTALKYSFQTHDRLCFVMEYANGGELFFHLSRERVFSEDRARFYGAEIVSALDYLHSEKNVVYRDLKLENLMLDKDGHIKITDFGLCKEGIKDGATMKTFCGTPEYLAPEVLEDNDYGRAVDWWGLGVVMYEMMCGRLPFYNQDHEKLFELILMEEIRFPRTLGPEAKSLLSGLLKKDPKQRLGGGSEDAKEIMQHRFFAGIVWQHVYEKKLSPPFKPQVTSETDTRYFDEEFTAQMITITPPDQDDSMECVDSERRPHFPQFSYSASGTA", "assay": "Akt kinase activity assay kit on cell lysate", "type": "biochemical", "settings": "LY2780301 as reference", "excerpt": "(§5) The outcomes were expressed as IC50 values (mean standard deviation) calculated from the dose–response curves and their linear regression equations."}, "PC-3 cells": {"test_system": "PC-3 cells", "assay": "MTT antiproliferative assay on PC-3", "type": "cell-based", "settings": "Homo sapiens, PC-3, MTT assay; mean ± S.D. (n = 3); read-out: Cytotoxicity in IC50, PC-3", "experimental": "(§2) The antiproliferative activity of the thiophene compounds 3a–g, 4a–c, 6a, and 7a–d was evaluated by an in vitro MTT colorimetric assay on two oncogenic cell lines: liver (HepG2) and prostate (PC-3).\n(§3) All cell lines (HepG2, PC-3, and nontumorigenic WI38) were supplied from VACSERA (Cairo, Egypt), cultured in DMEM (Invitrogen/Life Technologies, Waltham, MA, USA) at a density of 1.2–1.8 × 10,000 cells/well in a volume of 100 µL of the growth medium, and then incubated for 24 h, and an MTT assay was done as reported by."}, "VEGFR-2 [3]": {"biological_target": "T2, VEGFR-2 (Homo sapiens, UniProt P35968)", "T2 sequence (P35968 20-1356)": "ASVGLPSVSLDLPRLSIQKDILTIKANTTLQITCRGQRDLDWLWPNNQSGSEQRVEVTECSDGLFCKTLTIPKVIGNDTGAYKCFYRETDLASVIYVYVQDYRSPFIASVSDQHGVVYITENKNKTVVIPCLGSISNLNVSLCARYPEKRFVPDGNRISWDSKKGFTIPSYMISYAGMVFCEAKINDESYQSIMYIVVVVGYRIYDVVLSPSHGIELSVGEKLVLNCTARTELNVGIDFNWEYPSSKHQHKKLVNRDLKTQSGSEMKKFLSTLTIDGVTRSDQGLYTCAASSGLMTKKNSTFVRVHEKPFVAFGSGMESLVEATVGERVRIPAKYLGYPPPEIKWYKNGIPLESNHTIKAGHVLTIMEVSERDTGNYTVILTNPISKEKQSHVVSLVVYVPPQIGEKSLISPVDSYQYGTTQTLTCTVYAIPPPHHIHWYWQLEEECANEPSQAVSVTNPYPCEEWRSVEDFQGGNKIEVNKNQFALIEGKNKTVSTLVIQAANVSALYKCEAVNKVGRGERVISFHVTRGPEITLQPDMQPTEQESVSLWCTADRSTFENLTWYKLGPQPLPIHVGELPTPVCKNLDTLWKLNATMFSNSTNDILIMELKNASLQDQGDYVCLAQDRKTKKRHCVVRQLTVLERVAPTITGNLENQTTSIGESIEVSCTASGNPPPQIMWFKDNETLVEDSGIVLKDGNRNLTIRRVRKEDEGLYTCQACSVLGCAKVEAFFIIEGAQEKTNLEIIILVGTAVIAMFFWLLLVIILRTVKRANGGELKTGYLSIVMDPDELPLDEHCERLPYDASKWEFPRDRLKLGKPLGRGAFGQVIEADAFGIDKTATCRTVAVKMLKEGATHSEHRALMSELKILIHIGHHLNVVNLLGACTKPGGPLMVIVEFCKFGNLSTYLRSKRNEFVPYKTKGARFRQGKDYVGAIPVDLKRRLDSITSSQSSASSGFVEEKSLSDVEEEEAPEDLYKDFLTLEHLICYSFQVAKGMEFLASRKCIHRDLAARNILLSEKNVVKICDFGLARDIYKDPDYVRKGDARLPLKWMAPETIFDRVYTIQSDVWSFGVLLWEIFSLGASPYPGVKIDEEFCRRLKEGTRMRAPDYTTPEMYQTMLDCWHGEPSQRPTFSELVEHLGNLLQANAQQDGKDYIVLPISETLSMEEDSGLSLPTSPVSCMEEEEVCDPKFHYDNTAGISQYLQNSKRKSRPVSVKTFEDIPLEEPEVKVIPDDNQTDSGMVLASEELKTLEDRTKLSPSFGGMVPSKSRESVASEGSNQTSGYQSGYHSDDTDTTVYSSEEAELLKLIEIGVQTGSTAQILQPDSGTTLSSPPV", "assay": "VEGFR-2 phosphorylation cell-based ELISA in HepG2 cells", "settings": "compounds at their formerly determined IC50", "description": "VEGFR-2 phosphorylation was assayed using VEGFR2 Antibody (Phospho-Tyr951) (OAEC00085, AVIVA SYSTEM BIOLOGY) [53], while Akt-1 was assayed by Mouse/Human/Rat Phospho-AKT1 (Ser473) (Cell-Based Phosphorylation ELISA) ELISA Kit-LS-F1447 (LSBio) according to manufacturer’s instructions [54]."}, "AKT-1 [4]": {"biological_target": "T1, AKT-1", "assay": "Phospho-AKT1 (Ser473) cell-based phosphorylation ELISA in HepG2 cells", "design": "endogenous in cells; host or cells: HepG2", "experimental": "To investigate the success of the design strategy developed in this work, the effect of the promising candidates 3b and 4c was assessed on AKT-1, a crucial protein, by determining their phosphorylation inhibition rate in HepG2 cells and measuring their biochemical kinase inhibitory activity.\nVEGFR-2 phosphorylation was assayed using VEGFR2 Antibody (Phospho-Tyr951) (OAEC00085, AVIVA SYSTEM BIOLOGY), while Akt-1 was assayed by Mouse/Human/Rat Phospho-AKT1 (Ser473) (Cell-Based Phosphorylation ELISA) ELISA Kit-LS-F1447 (LSBio) according to manufacturer’s instructions."}, "HepG2 cells [5]": {"test_system": "HepG2 cells", "assay": "MTT antiproliferative assay on HepG2", "type": "cell-based", "settings": "mean ± S.D. (n = 3), read-out: Cytotoxicity in IC50, HepG2", "experimental": "as §2, §3"}, "VEGFR-2 [6]": {"biological_target": "T2, VEGFR-2", "assay": "VEGFR2 (KDR) kinase assay kit", "type": "biochemical", "design": "purchased BPS Bioscience 40325", "settings": "read-out: VEGFR-2 kinase inhibitory activity IC50", "excerpt": "as §5"}, "HepG2 cells [7]": {"test_system": "HepG2 cells", "assay": "Flow cytometric cell cycle analysis", "type": "cell-based", "settings": "HepG2, 48 h, at IC50", "experimental": "AKT-1 is known for its downstream activation of several proteins involved in cell proliferation and apoptosis evasion. In addition, it is reported to be involved in G1–S checkpoint transition and proliferation.\nas §1"}, "caspase-3": {"test_system": "caspase-3", "assay": "Active caspase-3 ELISA in HepG2 cells", "type": "cell-based, human", "experimental": "Apoptosis is known to be carried out through three different pathways: intrinsic, extrinsic, and granzyme pathways. One of the controlling proteins in apoptosis is the cysteine protease named caspase with the chief executer caspase 3 [46, 47]. Accordingly, assessing the effect of 3b and 4c on the active caspase-3 level was done in HepG2 cells taking doxorubicin as the reference drug.\nThe colorimetric ELISA assay for active caspase-3 detection was carried out utilizing Invitrogen™ Caspase-3 (Cleaved) Human ELISA-Kit (KHO1091, CA, USA) according to the manufacturer’s procedures. ROBONIK P2000 ELISA reader was used at 450 nm, and the standard curve was obtained by plotting the mean absorbance of each standard concentration against human caspase-3 concentrations."}, "[8]": {"assay": "MTT assay on normal nononcogenic cell line WI38", "type": "cell-based", "settings": "human, WI38 cells (normal nononcogenic cell line); MTT assay; noncancerous cell line; mean ± S.D. (n = 3); read-out: Cytotoxicity in IC50, WI38", "experimental": "(§4) The aforementioned results illustrate that compounds 3b and 4c are the most promising cytotoxic agents on both cell lines and will be subjected to a thorough mechanistic study to understand their anticancer activity. However, before doing this, their selective toxicity and, thus, their safety were evaluated by measuring the IC50 values against the normal nononcogenic cell line (Wl38) by an MTT assay as listed in Table 1. […] Compound 3b gave SI of 6, and compound 4c gave SI = 12 showing better selectivity toward cancer cells than doxorubicin with SI = 5.\nas §3"}, "WI38 cells": {"test_system": "WI38 cells", "assay": "MTT assay on normal nononcogenic cell line WI38", "type": "cell-based", "settings": "calculated by dividing the IC50 of WI38/PC-3; SI > 2 is considered safe", "experimental": "as §4, §3"}, "lung, ovarian, CNS cells": {"test_system": "lung, ovarian, CNS cells", "design": "method as in PMID 28759878", "settings": "read-out: IC50 range in lung, ovarian, CNS cells; cited from earlier work"}, "FAK": {"test_system": "FAK", "design": "method as in PMID 20050669, PMID 31923858", "settings": "cited from earlier work"}, "PC3 cells": {"test_system": "PC3 cells", "design": "method as in PMID 33328104", "settings": "cited from earlier work"}, "HUVEC cells": {"test_system": "HUVEC cells", "design": "method as in PMID 33328104", "settings": "cited from earlier work"}},
  "note": "Several values for one entry are separate records, joined by “and”; a condition that tells them apart may be missing. Identical values can stand only once. Like-named read-outs stand apart in the source and are kept apart here.",
  "data": [
    {"smiles": "CN1CCc2sc3nc(-c4ccc(Cl)cc4)[nH]c(=O)c3c21", "note": "[3b, 2-(4-Chlorophenyl)-5-methyl-3,5,6,7-tetrahydro-4H-pyrrolo[2′,3′:4,5]thieno[2,3-d]pyrimidin-4-one]", "values": [
      {"measurement": "Increase in early apoptotic cells over untreated cells", "setting": "HepG2 cells [1]", "result": 5, "unit": "fold"},
      {"measurement": "Increase in late apoptotic cells over untreated cells", "setting": "HepG2 cells [1]", "result": 144, "unit": "fold"},
      {"measurement": "Apoptosis, Total (cells percentage)", "setting": "HepG2 cells [1]; at IC50", "result": 42.06, "unit": "%"},
      {"measurement": "Apoptosis, Early (cells percentage)", "setting": "HepG2 cells [1]; at IC50, Q2 in Figure 6", "result": 2.51, "unit": "%"},
      {"measurement": "Apoptosis, Late (cells percentage)", "setting": "HepG2 cells [1]; at IC50, Q3 in Figure 6", "result": 24.53, "unit": "%"},
      {"measurement": "Necrosis (cells percentage)", "setting": "HepG2 cells [1]; at IC50, Q4 in Figure 6", "result": 15.02, "unit": "%"},
      {"measurement": "IC50", "setting": "AKT-1 [2]", "result": 6960, "unit": "nM"},
      {"measurement": "IC50", "setting": "PC-3 cells", "result": "2150 ± 120", "unit": "nM"},
      {"measurement": "VEGFR-2 phosphorylation inhibition", "setting": "VEGFR-2 [3]", "result": 58.3, "unit": "%"},
      {"measurement": "melting point", "result": 168, "unit": "°C"},
      {"measurement": "AKT-1 phosphorylation inhibition rate", "setting": "AKT-1 [4]", "result": 63, "unit": "%"},
      {"measurement": "IC50", "setting": "HepG2 cells [5]; Homo sapiens, HepG2, MTT assay", "result": 3100, "unit": "nM"},
      {"measurement": "IC50", "setting": "HepG2 cells [5]; MTT assay", "result": "3110 ± 140", "unit": "nM"},
      {"measurement": "IC50", "setting": "VEGFR-2 [6]", "result": 126, "unit": "nM"},
      {"measurement": "% Content of DNA, G0:G1", "setting": "HepG2 cells [7]", "result": 39.42, "unit": "%"},
      {"measurement": "% Content of DNA, G2:M", "setting": "HepG2 cells [7]", "result": 4.39, "unit": "%"},
      {"measurement": "% Content of DNA, PreG1", "setting": "HepG2 cells [7]", "result": 42.06, "unit": "%"},
      {"measurement": "% Content of DNA, S", "setting": "HepG2 cells [7]", "result": 56.19, "unit": "%"},
      {"measurement": "Cell cycle comment (phase of arrest)", "setting": "HepG2 cells [7]", "result": "cell growth arrest@ S"},
      {"measurement": "Increase in active caspase-3 level over the untreated cells", "setting": "caspase-3", "result": "five-fold"},
      {"measurement": "IC50", "setting": "[8]", "result": "12500 ± 680", "unit": "nM"},
      {"measurement": "Selectivity Index (SI)", "setting": "WI38 cells", "result": "6 and 5.79"}
    ]},
    {"smiles": "COc1ccc(-c2nc3sc4c(c3c(=O)[nH]2)CCCC4)cc1", "note": "[III]", "values": [
      {"measurement": "IC50", "setting": "lung, ovarian, CNS cells", "result": "600 to 1200", "unit": "nM"}
    ]},
    {"smiles": "COc1ccccc1-c1csc2cnc(Nc3ccc(C(=O)NC4CCNCC4)c(F)c3)nc12", "note": "[II]", "values": [
      {"measurement": "IC50", "setting": "FAK", "result": 28.2, "unit": "nM"}
    ]},
    {"smiles": "O=C(Nc1ccc(Cl)c(Cl)c1)Nc1nnc(Sc2ncnc3scc(-c4ccncc4)c23)s1", "note": "[V]", "values": [
      {"measurement": "Pro-apoptotic effect in PC3 cells", "setting": "PC3 cells", "result": 44, "unit": "%"},
      {"measurement": "Pro-apoptotic effect in HUVEC cells", "setting": "HUVEC cells", "result": 28.45, "unit": "%"}
    ]}
  ]
}
